# Assay results published in PubChem BioAssay AID2060622 (Molecular Pharmacology Branch, DTP, NCI, 2025).
# System: 242566-281-R-J2-PDC complex spheroid viability
# Test: Anticancer human tumor 242566-281-R-J2-PDC patient-derived pancreatic carcinoma cell line growth inhibition [CLK]
# Details: for IC50: curve of first compound; for viability, T/C: stronger effect = lower value
# Summary of the method: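 Patient-derived tumor cells grown as complex spheroids with HUVEC endothelial cells and mesenchymal stem cells, treated with drug combinations. Concentrations descend in half-log steps from near clinical Cmax, or from 10 microM if Cmax unknown.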
# [1] = second compound 0.0316 µM, first compound 0.0316 µM
# [2] = second compound 0.0316 µM, first compound 0.1 µM
# [3] = second compound 0.0316 µM, first compound 0.316 µM
# [4] = second compound 0.0316 µM, first compound 1 µM
# [5] = second compound 0.0316 µM, first compound 3.16 µM
# [6] = second compound 0.0316 µM, first compound 10 µM
# [7] = second compound 0.1 µM, first compound 0.0316 µM
# [8] = second compound 0.1 µM, first compound 0.1 µM
# [9] = second compound 0.1 µM, first compound 0.316 µM
# [10] = second compound 0.1 µM, first compound 1 µM
# [11] = second compound 0.1 µM, first compound 3.16 µM
# [12] = second compound 0.1 µM, first compound 10 µM
# [13] = second compound 0.316 µM, first compound 0.0316 µM
# [14] = second compound 0.316 µM, first compound 0.1 µM
# [15] = second compound 0.316 µM, first compound 0.316 µM
# [16] = second compound 0.316 µM, first compound 1 µM
# [17] = second compound 0.316 µM, first compound 3.16 µM
# [18] = second compound 0.316 µM, first compound 10 µM
# [19] = second compound 1 µM, first compound 0.0316 µM
# [20] = second compound 1 µM, first compound 0.1 µM
# [21] = second compound 1 µM, first compound 0.316 µM
# [22] = second compound 1 µM, first compound 1 µM
# [23] = second compound 1 µM, first compound 3.16 µM
# [24] = second compound 1 µM, first compound 10 µM
# [25] = second compound 3.16 µM, first compound 0.0316 µM
# [26] = second compound 3.16 µM, first compound 0.1 µM
# [27] = second compound 3.16 µM, first compound 0.316 µM
# [28] = second compound 3.16 µM, first compound 1 µM
# [29] = second compound 3.16 µM, first compound 3.16 µM
# [30] = second compound 3.16 µM, first compound 10 µM
# [31] = second compound 10 µM, first compound 0.0316 µM
# [32] = second compound 10 µM, first compound 0.1 µM
# [33] = second compound 10 µM, first compound 0.316 µM
# [34] = second compound 10 µM, first compound 1 µM
# [35] = second compound 10 µM, first compound 3.16 µM
# [36] = second compound 10 µM, first compound 10 µM
# 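Also: spheroids exposed to compounds for 7 days before readout.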
# 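For viability, T/C in this document: 100% = DMSO vehicle control wells.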
smiles,measurement,setting,value
CC(=O)O[C@H]1C(=O)[C@@]2(C)[C@H]([C@H](OC(=O)c3ccccc3)[C@]3(O)C[C@H](OC(=O)[C@H](O)[C@@H](NC(=O)c4ccccc4)c4ccccc4)C(C)=C1C3(C)C)[C@]1(OC(C)=O)CO[C@@H]1C[C@@H]2O + CN1CCN(c2cc(C(=O)Nc3cc4cc(-c5cnn(C)c5)ccc4cn3)ccn2)CC1,IC50,second compound 0.0316 µM,< 31.6 nM
same,IC50,second compound 0.1 µM,< 31.6 nM
same,IC50,second compound 0.316 µM,< 31.6 nM
same,IC50,second compound 1 µM,< 31.6 nM
same,IC50,second compound 3.16 µM,< 31.6 nM
same,IC50,second compound 10 µM,< 31.6 nM
same,"viability, T/C",[1],37%
same,"viability, T/C",[2],33.4%
same,"viability, T/C",[3],28.9%
same,"viability, T/C",[4],26.7%
same,"viability, T/C",[5],32.2%
same,"viability, T/C",[6],34.8%
same,"viability, T/C",[7],43.7%
same,"viability, T/C",[8],29.1%
same,"viability, T/C",[9],27.7%
same,"viability, T/C",[10],25.2%
same,"viability, T/C",[11],29.1%
same,"viability, T/C",[12],28.6%
same,"viability, T/C",[13],15.9%
same,"viability, T/C",[14],15.5%
same,"viability, T/C",[15],15.1%
same,"viability, T/C",[16],17.2%
same,"viability, T/C",[17],25%
same,"viability, T/C",[18],31.3%
same,"viability, T/C",[19],5.85%
same,"viability, T/C",[20],4.53%
same,"viability, T/C",[21],5.01%
same,"viability, T/C",[22],4.32%
same,"viability, T/C",[23],5.32%
same,"viability, T/C",[24],5.54%
same,"viability, T/C",[25],7.09%
same,"viability, T/C",[26],7.07%
same,"viability, T/C",[27],7.24%
same,"viability, T/C",[28],7.25%
same,"viability, T/C",[29],7.67%
same,"viability, T/C",[30],7.22%
same,"viability, T/C",[31],1.45%
same,"viability, T/C",[32],1.31%
same,"viability, T/C",[33],1%
same,"viability, T/C",[34],1.28%
same,"viability, T/C",[35],1.57%
same,"viability, T/C",[36],1.05%
CCc1c2c(nc3ccc(O)cc13)-c1cc3c(c(=O)n1C2)COC(=O)[C@]3(O)CC + CN1CCN(c2cc(C(=O)Nc3cc4cc(-c5cnn(C)c5)ccc4cn3)ccn2)CC1,IC50,second compound 0.0316 µM,8.95 nM
same,IC50,second compound 0.1 µM,4.12 nM
same,IC50,second compound 0.316 µM,< 3.16 nM
same,IC50,second compound 1 µM,< 3.16 nM
same,IC50,second compound 3.16 µM,< 3.16 nM
same,IC50,second compound 10 µM,< 3.16 nM
same,"viability, T/C","second compound 0.0316 µM, first compound 0.00316 µM",75.4%
same,"viability, T/C","second compound 0.0316 µM, first compound 0.01 µM",47.6%
same,"viability, T/C",[1],17.3%
same,"viability, T/C",[2],8.08%
same,"viability, T/C",[3],4.41%
same,"viability, T/C",[4],2.2%
same,"viability, T/C","second compound 0.1 µM, first compound 0.00316 µM",57%
same,"viability, T/C","second compound 0.1 µM, first compound 0.01 µM",26.9%
same,"viability, T/C",[7],9.57%
same,"viability, T/C",[8],5.51%
same,"viability, T/C",[9],3.73%
same,"viability, T/C",[10],1.87%
same,"viability, T/C","second compound 0.316 µM, first compound 0.00316 µM",13.3%
same,"viability, T/C","second compound 0.316 µM, first compound 0.01 µM",7.58%
same,"viability, T/C",[13],4.52%
same,"viability, T/C",[14],2.86%
same,"viability, T/C",[15],1.79%
same,"viability, T/C",[16],1.15%
same,"viability, T/C","second compound 1 µM, first compound 0.00316 µM",3.62%
same,"viability, T/C","second compound 1 µM, first compound 0.01 µM",3.2%
same,"viability, T/C",[19],2.53%
same,"viability, T/C",[20],2.3%
same,"viability, T/C",[21],1.39%
same,"viability, T/C",[22],1.39%
same,"viability, T/C","second compound 3.16 µM, first compound 0.00316 µM",5.73%
same,"viability, T/C","second compound 3.16 µM, first compound 0.01 µM",5.04%
same,"viability, T/C",[25],3.5%
same,"viability, T/C",[26],3.24%
same,"viability, T/C",[27],2.82%
same,"viability, T/C",[28],1.82%
same,"viability, T/C","second compound 10 µM, first compound 0.00316 µM",1.17%
same,"viability, T/C","second compound 10 µM, first compound 0.01 µM",0.88%
same,"viability, T/C",[31],0.45%
same,"viability, T/C",[32],0.5%
same,"viability, T/C",[33],0.49%
same,"viability, T/C",[34],0.31%
COc1ccc([C@@H](O)c2cc(-c3ncnc4cc(N5CCOCC5)ccc34)c(F)cc2Cl)nn1 + CN1CCN(c2cc(C(=O)Nc3cc4cc(-c5cnn(C)c5)ccc4cn3)ccn2)CC1,IC50,second compound 0.0316 µM,> 10000 nM
same,IC50,second compound 0.1 µM,6170 nM
same,IC50,second compound 0.316 µM,< 31.6 nM
same,IC50,second compound 1 µM,< 31.6 nM
same,IC50,second compound 3.16 µM,< 31.6 nM
same,IC50,second compound 10 µM,< 31.6 nM
same,"viability, T/C",[1],106%
same,"viability, T/C",[2],104%
same,"viability, T/C",[3],90.4%
same,"viability, T/C",[4],87%
same,"viability, T/C",[5],70.3%
same,"viability, T/C",[6],50.1%
same,"viability, T/C",[7],97.9%
same,"viability, T/C",[8],85%
same,"viability, T/C",[9],80.1%
same,"viability, T/C",[10],73.6%
same,"viability, T/C",[11],67.5%
same,"viability, T/C",[12],38.8%
same,"viability, T/C",[13],30.2%
same,"viability, T/C",[14],22.3%
same,"viability, T/C",[15],26.9%
same,"viability, T/C",[16],20.3%
same,"viability, T/C",[17],25%
same,"viability, T/C",[18],11.8%
same,"viability, T/C",[19],5.5%
same,"viability, T/C",[20],4.93%
same,"viability, T/C",[21],4.05%
same,"viability, T/C",[22],4.46%
same,"viability, T/C",[23],4.87%
same,"viability, T/C",[24],5.56%
same,"viability, T/C",[25],6.52%
same,"viability, T/C",[26],6.92%
same,"viability, T/C",[27],5.95%
same,"viability, T/C",[28],6.56%
same,"viability, T/C",[29],7.75%
same,"viability, T/C",[30],6.44%
same,"viability, T/C",[31],1.12%
same,"viability, T/C",[32],1.29%
same,"viability, T/C",[33],1.09%
same,"viability, T/C",[34],1.69%
same,"viability, T/C",[35],2.12%
same,"viability, T/C",[36],1.23%
COc1cccc2c1C(=O)c1c(O)c3c(c(O)c1C2=O)CC(O)(C(=O)CO)CC3OC1CC(N)C(O)C(C)O1 (stereo not given) + CN1CCN(c2cc(C(=O)Nc3cc4cc(-c5cnn(C)c5)ccc4cn3)ccn2)CC1,IC50,second compound 0.0316 µM,55 nM
same,IC50,second compound 0.1 µM,50 nM
same,IC50,second compound 0.316 µM,< 31.6 nM
same,IC50,second compound 1 µM,< 31.6 nM
same,IC50,second compound 3.16 µM,< 31.6 nM
same,IC50,second compound 10 µM,< 31.6 nM
same,"viability, T/C",[1],67%
same,"viability, T/C",[2],31.7%
same,"viability, T/C",[3],8.7%
same,"viability, T/C",[4],4.2%
same,"viability, T/C",[5],1.44%
same,"viability, T/C",[6],2.53%
same,"viability, T/C",[7],66.5%
same,"viability, T/C",[8],25.1%
same,"viability, T/C",[9],5.6%
same,"viability, T/C",[10],2.26%
same,"viability, T/C",[11],1.22%
same,"viability, T/C",[12],1.37%
same,"viability, T/C",[13],26.1%
same,"viability, T/C",[14],7.56%
same,"viability, T/C",[15],1.25%
same,"viability, T/C",[16],1.1%
same,"viability, T/C",[17],1.58%
same,"viability, T/C",[18],1.58%
same,"viability, T/C",[19],4.67%
same,"viability, T/C",[20],4.62%
same,"viability, T/C",[21],2.83%
same,"viability, T/C",[22],3.28%
same,"viability, T/C",[23],2.48%
same,"viability, T/C",[24],2.27%
same,"viability, T/C",[25],6.53%
same,"viability, T/C",[26],5.78%
same,"viability, T/C",[27],5.19%
same,"viability, T/C",[28],3.29%
same,"viability, T/C",[29],2.58%
same,"viability, T/C",[30],1.42%
same,"viability, T/C",[31],1.13%
same,"viability, T/C",[32],1.22%
same,"viability, T/C",[33],0.74%
same,"viability, T/C",[34],0.66%
same,"viability, T/C",[35],0.57%
same,"viability, T/C",[36],0.17%
CCCS(=O)(=O)Nc1ccc(F)c(C(=O)c2c[nH]c3ncc(-c4ccc(Cl)cc4)cc23)c1F + CNC(=O)c1ccc(Nc2nc(OC3CCCC3)c3c(-c4ccc5nc(C)oc5c4)c[nH]c3n2)c(OC)c1,IC50,second compound 0.0316 µM,5930 nM
same,IC50,second compound 0.1 µM,5310 nM
same,IC50,second compound 0.316 µM,3850 nM
same,IC50,second compound 1 µM,2140 nM
same,IC50,second compound 3.16 µM,379 nM
same,IC50,second compound 10 µM,< 31.6 nM
same,"viability, T/C",[1],89.8%
same,"viability, T/C",[2],99.1%
same,"viability, T/C",[3],86.6%
same,"viability, T/C",[4],125%
same,"viability, T/C",[5],104%
same,"viability, T/C",[6],7.61%
same,"viability, T/C",[7],82.2%
same,"viability, T/C",[8],92.3%
same,"viability, T/C",[9],88.2%
same,"viability, T/C",[10],76.7%
same,"viability, T/C",[11],87.9%
same,"viability, T/C",[12],6.61%
same,"viability, T/C",[13],74.5%
same,"viability, T/C",[14],81.1%
same,"viability, T/C",[15],59.9%
same,"viability, T/C",[16],63.1%
same,"viability, T/C",[17],61.3%
same,"viability, T/C",[18],10.2%
same,"viability, T/C",[19],75.2%
same,"viability, T/C",[20],63.2%
same,"viability, T/C",[21],66.7%
same,"viability, T/C",[22],64.8%
same,"viability, T/C",[23],42.6%
same,"viability, T/C",[24],11.8%
same,"viability, T/C",[25],54.9%
same,"viability, T/C",[26],50.6%
same,"viability, T/C",[27],50.2%
same,"viability, T/C",[28],44.6%
same,"viability, T/C",[29],26.5%
same,"viability, T/C",[30],16.4%
same,"viability, T/C",[31],49.2%
same,"viability, T/C",[32],47%
same,"viability, T/C",[33],53%
same,"viability, T/C",[34],47%
same,"viability, T/C",[35],30.1%
same,"viability, T/C",[36],17.9%
